Reference: patent US20120101083A1, “S1P1 AGONISTS COMPRISING A BICYCLIC N-CONTAINING RING” (GLAXO GROUP LIMITED, priority 2009, published 2012)
Structures can show the parent of a compound that is named as a salt.

Experiments:
[1] = molecular target: T1, S1P1 (PathHunter CHO-K1 EDG1 β-Arrestin cell line) (Homo sapiens, UniProt P21453); assay: S1P-1 β-Arrestin recruitment assay; type: cell-based; details: CHO-K1 EDG1 β-Arrestin cells, chemi-luminescence
T1 construct: host or cells: PathHunter CHO-K1 EDG1 β-Arrestin cell line
T1 sequence (P21453 whole entry): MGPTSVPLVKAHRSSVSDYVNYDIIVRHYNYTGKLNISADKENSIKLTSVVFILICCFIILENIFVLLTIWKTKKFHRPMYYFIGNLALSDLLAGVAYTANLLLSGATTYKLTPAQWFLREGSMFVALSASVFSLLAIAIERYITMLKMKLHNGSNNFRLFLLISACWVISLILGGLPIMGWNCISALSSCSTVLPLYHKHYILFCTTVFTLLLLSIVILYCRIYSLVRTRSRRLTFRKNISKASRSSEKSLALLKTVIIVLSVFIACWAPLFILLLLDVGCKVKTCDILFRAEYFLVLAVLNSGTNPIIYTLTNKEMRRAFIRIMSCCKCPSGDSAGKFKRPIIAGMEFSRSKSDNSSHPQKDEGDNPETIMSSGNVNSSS
T1 sequence (P32121 whole entry partner): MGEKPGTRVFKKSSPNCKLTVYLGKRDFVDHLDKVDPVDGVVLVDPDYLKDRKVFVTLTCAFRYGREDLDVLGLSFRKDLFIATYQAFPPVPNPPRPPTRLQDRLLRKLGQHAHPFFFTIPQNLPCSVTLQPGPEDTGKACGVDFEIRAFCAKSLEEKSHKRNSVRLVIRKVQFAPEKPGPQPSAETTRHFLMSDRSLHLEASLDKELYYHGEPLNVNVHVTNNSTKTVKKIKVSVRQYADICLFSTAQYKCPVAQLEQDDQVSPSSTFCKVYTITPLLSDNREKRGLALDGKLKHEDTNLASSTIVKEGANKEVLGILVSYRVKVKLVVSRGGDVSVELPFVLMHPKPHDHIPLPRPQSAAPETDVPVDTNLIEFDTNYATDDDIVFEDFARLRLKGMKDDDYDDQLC
Summary of the method: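 CHO-K1 cells expressing S1P1 and β-arrestin 2 fused to complementing β-galactosidase fragments, at 1×10^4 cells/well in pH 7.4 buffer with 0.1% BSA. Compound exposure 90 min at 37 °C then 15 min room temperature; chemiluminescent substrate added for 60 min before luminescence read.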

[2] = molecular target: T2, S1P1 receptor (S1P1 expressing RH7777 membranes) (Homo sapiens, UniProt P21453); assay: S1P1 GTPγS assay; type: biochemical; details: tested in one of the above S1P1 assays (two GTPγS formats)
T2 construct: expressed in transfected cells; host or cells: RH7777 cells (membranes)
T2 sequence (P21453 whole entry): as the sequence (P21453 whole entry) above
Summary of the method: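 Membranes from RH7777 cells expressing human S1P1 (1.5 μg/well) precoupled 30 min on ice to WGA SPA beads in 20 mM HEPES pH 7.4, 10 mM MgCl2, 100 mM NaCl, with 10 μM GDP and 90 μg/ml saponin. [35S]-GTPγS 0.5 nM final added with compound; SPA signal read immediately.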

Compound | EC50 [1] [nM] | EC50 [2] [nM]
Cc1c(-c2noc(-c3ccc(OC(C)C)c(C#N)c3)n2)ccc2c1CCN(CCC(=O)N(C)C)C2 [Example 2, 3-[6-(5-{3-Cyano-4-[(1-methylethyl)oxy]phenyl}-1,2,4-oxadiazol-3-yl)-5-methyl-3,4-dihydro-2(1H)-isoquinolinyl]-N,N-dimethylpropanamide] | ≤ 100 | ≤ 100
Cc1c(-c2noc(-c3ccc(OC(C)C)c(C#N)c3)n2)ccc2c1CCN(CC(N)=O)C2 [Example 3, 2-[6-(5-{3-Cyano-4-[(1-methylethyl)oxy]phenyl}-1,2,4-oxadiazol-3-yl)-5-methyl-3,4-dihydro-2(1H)-isoquinolinyl]acetamide] | ≤ 10 | ≤ 100
CC(C)Oc1ccc(-c2nc(-c3ccc4c(c3)CCN(CC(=O)NC[C@H](O)CO)CC4)no2)cc1C#N [Example 194, 2-[7-(5-{3-cyano-4-[(1-methylethyl)oxy]phenyl}-1,2,4-oxadiazol-3-yl)-1,2,4,5-tetrahydro-3H-3-benzazepin-3-yl]-N-[(2S)-2,3-dihydroxypropyl]acetamide hydrochloride] | ≤ 10 | ≤ 100
CC(C)Oc1ccc(-c2nc(-c3ccc4c(c3)CCN(C[C@@H](O)CO)CC4)no2)cc1C#N [Example 74, 5-(3-{3-[(2R)-2,3-dihydroxypropyl]-2,3,4,5-tetrahydro-1H-3-benzazepin-7-yl}-1,2,4-oxadiazol-5-yl)-2-[(1-methylethyl)oxy]benzonitrile] | ≤ 100 | ≤ 100
CC(C)Oc1ccc(-c2nc(-c3ccc4c(c3)CCN(CC(=O)N3CC(O)C3)CC4)no2)cc1C#N [Example 93, 5-(3-{3-[2-(3-hydroxy-1-azetidinyl)-2-oxoethyl]-2,3,4,5-tetrahydro-1H-3-benzazepin-7-yl}-1,2,4-oxadiazol-5-yl)-2-[(1-methylethyl)oxy]benzonitrile hydrochloride] | ≤ 10 | ≤ 10
CC(C)Oc1ccc(-c2nc(-c3cccc4c3CCN(C(=O)[C@H](N)CO)C4)no2)cc1C#N [Example 90, 2-[(1-methylethyl)oxy]-5-[3-(2-D-seryl-1,2,3,4-tetrahydro-5-isoquinolinyl)-1,2,4-oxadiazol-5-yl]benzonitrile hydrochloride] | ≤ 100 | ≤ 10
Cc1c(-c2noc(-c3ccc(OC(C)C)c(C#N)c3)n2)ccc2c1CCN(C(=O)[C@H](N)[C@@H](C)O)C2 [Example 56, 5-[3-(2-D-allothreonyl-5-methyl-1,2,3,4-tetrahydro-6-isoquinolinyl)-1,2,4-oxadiazol-5-yl]-2-[(1-methylethyl)oxy]benzonitrile] | ≤ 100 | ≤ 100
CC(C)Oc1ncc(-c2nc(-c3ccc4c(c3)CCN(C(=O)[C@@H](N)[C@@H](C)O)CC4)no2)cc1C#N [Example 77, 2-[(1-methylethyl)oxy]-5-[3-(3-L-threonyl-2,3,4,5-tetrahydro-1H-3-benzazepin-7-yl)-1,2,4-oxadiazol-5-yl]-3-pyridinecarbonitrile hydrochloride] | ≤ 100 | ≤ 1000
CC(C)Nc1ncc(-c2nc(-c3ccc4c(c3)CCN(C[C@H](O)CO)CC4)no2)cc1C#N [Example 114, 5-(3-{3-[(2S)-2,3-dihydroxypropyl]-2,3,4,5-tetrahydro-1H-3-benzazepin-7-yl}-1,2,4-oxadiazol-5-yl)-2-[(1-methylethyl)amino]-3-pyridinecarbonitrile] | ≤ 100 | ≤ 1000
Cc1c(-c2noc(-c3ccc(OC(C)C)c(C#N)c3)n2)ccc2c1CCN(CCCC(N)=O)C2 [Example 4, 4-[6-(5-{3-Cyano-4-[(1-methylethyl)oxy]phenyl}-1,2,4-oxadiazol-3-yl)-5-methyl-3,4-dihydro-2(1H)-isoquinolinyl]butanamide] | ≤ 10 | ≤ 100
CC(C)Oc1ccc(-c2nc(-c3ccc4c(c3)CCN(CC(=O)N3CCOCC3)CC4)no2)cc1C#N [Example 92, 2-[(1-methylethyl)oxy]-5-(3-{3-[2-(4-morpholinyl)-2-oxoethyl]-2,3,4,5-tetrahydro-1H-3-benzazepin-7-yl}-1,2,4-oxadiazol-5-yl)benzonitrile hydrochloride] | ≤ 100 | ≤ 10
Cc1c(-c2noc(-c3ccc(OC(C)C)c(C#N)c3)n2)ccc2c1CCN(C(=O)CCCN)C2 [Example 41, 5-{3-[2-(4-Aminobutanoyl)-5-methyl-1,2,3,4-tetrahydro-6-isoquinolinyl]-1,2,4-oxadiazol-5-yl}-2-[(1-methylethyl)oxy]benzonitrile hydrochloride] | ≤ 10 | ≤ 100
CCOc1ccc(-c2nc(-c3ccc4c(c3)CCN(CC(O)CO)CC4)no2)cc1C#N (stereo not shown) [Example 70, 5-{3-[3-(2,3-dihydroxypropyl)-2,3,4,5-tetrahydro-1H-3-benzazepin-7-yl]-1,2,4-oxadiazol-5-yl}-2-(ethyloxy)benzonitrile] | ≤ 100 | ≤ 100
Cc1c(-c2noc(-c3ccc(OC(C)C)c(C#N)c3)n2)ccc2c1CCN(CCO)C2 [Example 7, 5-{3-[2-(2-Hydroxyethyl)-5-methyl-1,2,3,4-tetrahydro-6-isoquinolinyl]-1,2,4-oxadiazol-5-yl}-2-[(1-methylethyl)oxy]benzonitrile] | ≤ 10 | ≤ 100
N#Cc1cc(-c2nc(-c3ccc4c(c3)CCN(C(=O)CN)CC4)no2)ccc1OC(CF)CF [Example 54, 2-{[2-fluoro-1-(fluoromethyl)ethyl]oxy}-5-[3-(3-glycyl-2,3,4,5-tetrahydro-1H-3-benzazepin-7-yl)-1,2,4-oxadiazol-5-yl]benzonitrile] | ≤ 10 | ≤ 100
Cc1c(-c2noc(-c3ccc(OC(C)C)c(C#N)c3)n2)ccc2c1CCN(C(CO)CO)C2 [Example 64, 5-(3-{2-[2-hydroxy-1-(hydroxymethyl)ethyl]-5-methyl-1,2,3,4-tetrahydro-6-isoquinolinyl}-1,2,4-oxadiazol-5-yl)-2-[(1-methylethyl)oxy]benzonitrile] | ≤ 10 | ≤ 1000
CC(C)Oc1ccc(-c2nc(-c3ccc4c(c3)CCN(CC(=O)NCCO)CC4)no2)cc1C#N [Example 111, 2-[7-(5-{3-cyano-4-[(1-methylethyl)oxy]phenyl}-1,2,4-oxadiazol-3-yl)-1,2,4,5-tetrahydro-3H-3-benzazepin-3-yl]-N-(2-hydroxyethyl)acetamide hydrochloride] | ≤ 10 | ≤ 100
Cc1c(-c2noc(-c3cnc(OC(C)C)c(C#N)c3)n2)ccc2c1CCN(C[C@@H](O)CO)C2 [Example 133] | ≤ 100 | ≤ 100

Now from value to compound:

EC50 [1] [nM] | EC50 [2] [nM] | Compound
≤ 10 | ≤ 100 | CC(C)Oc1ccc(-c2nc(-c3ccc4c(c3)CCN(CC(=O)N[C@@H](C)CO)CC4)no2)cc1C#N [Example 80, 2-[7-(5-{3-cyano-4-[(1-methylethyl)oxy]phenyl}-1,2,4-oxadiazol-3-yl)-1,2,4,5-tetrahydro-3H-3-benzazepin-3-yl]-N-[(1S)-2-hydroxy-1-methylethyl]acetamide hydrochloride]
≤ 10 | ≤ 10 | Cc1c(-c2noc(-c3ccc(OC(C)C)c(C#N)c3)n2)ccc2c1CCN(CC(=O)N[C@@H](C)CO)C2 [Example 119, 2-[6-(5-{3-cyano-4-[(1-methylethyl)oxy]phenyl}-1,2,4-oxadiazol-3-yl)-5-methyl-3,4-dihydro-2(1H)-isoquinolinyl]-N-[(1S)-2-hydroxy-1-methylethyl]acetamide hydrochloride]
≤ 10 | ≤ 100 | Cc1c(-c2noc(-c3ccc(OC(C)C)c(C#N)c3)n2)ccc2c1CCN(CC(=O)NC[C@H](C)O)CC2 [Example 148, 2-[7-(5-{3-cyano-4-[(1-methylethyl)oxy]phenyl}-1,2,4-oxadiazol-3-yl)-6-methyl-1,2,4,5-tetrahydro-3H-3-benzazepin-3-yl]-N-[(2S)-2-hydroxypropyl]acetamide]
≤ 10 | ≤ 100 | Cc1c(-c2noc(-c3ccc(OC(C)C)c(C#N)c3)n2)ccc2c1CCN(CC(=O)N[C@@H](C)CO)CC2 [Example 158, 2-[7-(5-{3-cyano-4-[(1-methylethyl)oxy]phenyl}-1,2,4-oxadiazol-3-yl)-6-methyl-1,2,4,5-tetrahydro-3H-3-benzazepin-3-yl]-N-[(1S)-2-hydroxy-1-methylethyl]acetamide]
≤ 100 | ≤ 1000 | CC(C)Oc1ccc(-c2nc(-c3ccc4c(c3)CCN(CC(=O)N[C@H](C)CO)CC4)no2)cc1C#N [Example 78, 2-[7-(5-{3-cyano-4-[(1-methylethyl)oxy]phenyl}-1,2,4-oxadiazol-3-yl)-1,2,4,5-tetrahydro-3H-3-benzazepin-3-yl]-N-(1R)-2-hydroxy-1-methylethyl]acetamide hydrochloride]
≤ 10 | ≤ 100 | Cc1c(-c2noc(-c3ccc(OC(C)C)c(C#N)c3)n2)ccc2c1CCN(CC(=O)NCCO)CC2 [Example 146, 2-[7-(5-{3-cyano-4-[(1-methylethyl)oxy]phenyl}-1,2,4-oxadiazol-3-yl)-6-methyl-1,2,4,5-tetrahydro-3H-3-benzazepin-3-yl]-N-(2-hydroxyethyl)acetamide]
≤ 10 | ≤ 100 | Cc1c(-c2noc(-c3ccc(OC(C)C)c(C#N)c3)n2)ccc2c1CCN(CC(=O)N[C@H](C)CO)CC2 [Example 159]
≤ 10 | ≤ 100 | Cc1c(-c2noc(-c3ccc(OC(C)C)c(C#N)c3)n2)ccc2c1CCN(C(=O)CNCC(O)CO)CC2 (stereo not shown) [Example 187, 5-(3-{3-[N-(2,3-dihydroxypropyl)glycyl]-6-methyl-2,3,4,5-tetrahydro-1H-3-benzazepin-7-yl}-1,2,4-oxadiazol-5-yl)-2-[(1-methylethyl)oxy]benzonitrile]
